Data: patent US20100239685A1, “COMPOUND FOR TREATMENT OR PREVENTION OF PROSTATE-RELATED DISEASES AND PHARMACEUTICAL COMPOSITION OF COLON DELIVERY SYSTEM CONTAINING THE SAME” (priority 2006, published 2010)
Where “and” joins values, the source holds several entries; their conditions need not be identical. Identical values can stand only once.

Experiments:
[1] = Determination of partition coefficients (octanol / phosphate buffer pH 7.4); assay type: physicochemical; conditions: sample 200 μg/mL; octanol/water; replicates 1-3
Description: Octanol and phosphate buffer (pH 7.4) were saturated with a counter-solvent for 24 hours or more. A given amount of a naphthoquinone-based compound (compound 1 of Table 1 below) was dissolved in the thus-saturated octanol, mixed with triple-distilled water and stirred using a magnetic stirrer at 200 rpm for 13 hours or more. Samples were taken, filtered through a 0.45 μm RC Membrane filter and diluted with methanol. The diluted sample materials were analyzed by HPLC. A partition coefficient versus an amount of the compound 1 was determined.

[2] = cited from earlier work
[3] = Intestinal absorption, single-pass intestinal perfusion; assay type: in vivo, rats
Description: In order to determine intestinal absorption (%) of a naphthoquinone-based compound, a single-pass intestinal perfusion technique was carried out in internal organs of rats, including jejunum, ileum and large intestine. The steady-state intestinal effective permeability (Peff) can be expressed according to the following equation. Peff=[−Qin·ln (Cout/Cin)]/A Peff: Steady-state intestinal effective permeability (cm/s) Qin: Perfusion flow rate (0.4 mL/min) Cin, Cout: Inlet and fluid-transport-corrected outlet solution concentrations A: Mass transfer surface area within intestinal segment (2πrL), r, L: Radius and length of intestinal segment The radius (r) and length (L) of the jejunum, ileum and large intestine used in experiments are as follows: (r: jejunum, 0.21 cm; ileum, 0.22 cm; large intestine, 0.23 cm, and L: 10 cm) The steady-state was confirmed by the ratio of the outlet to inlet concentrations (Cout/Cin) versus time. The steady-state is established when the Cout/Cin ratio of the naphthoquinone-based compound is maintained at a constant value (n=3, error bars with respect to S.D.). Residual amounts of the naphthoquinone-based compound in the above three intestinal organs were measured at different time points. The outlet steady-state concentration of the compound under perfusion was calculated. The results thus obtained are given in Table 4 and FIG. 2, respectively. The effective permeability was measured at 4 points of each intestinal tissue.

Q: With `CC1(C)CCC2=C(O1)c1ccccc1C(=O)C2=O` [Compound 1] as the compound, how does the “Partition Coefficient” value [1] read?
A: 2.40 and 2.20

Q: For `C[C@H]1COC2=C1C(=O)C(=O)c1c2ccc2c1CCCC2(C)C` [cryptotanshinone], which “absorption rate via oral administration” value [2] is on record?
A: 2.05%

Q: With `CC1(C)CCC2=C(O1)c1ccccc1C(=O)C2=O` [naphthoquinone-based compound] as the compound, how does the Peff ([3]; Duodenum) read?
A: 0.79 ± 0.33 × 10^−5 (cm/s)

Q: And the Peff ([3]; Ileum)?
A: 5.15 ± 1.49 × 10^−5 (cm/s)

Q: What about the Peff ([3]; Jejunum) of the same compound?
A: 2.37 ± 1.17 × 10^−5 (cm/s)

Q: What about the Peff ([3]; Large intestine) of the same compound?
A: 7.82 ± 0.93 × 10^−5 (cm/s)
